Activity calls are given as the source filed them.
Key:
[1] = biological target: T1, Corticotropin-releasing factor receptor 2/Corticotropin-releasing factor-binding protein (Homo sapiens, UniProt P24387+Q13324); test: activators of CRF receptor 2 with binding protein – uHTS hits, confirmation (AID 602473); assay type: functional; settings: read-out: EC50_Mean
T1 sequence (Q13324 whole entry): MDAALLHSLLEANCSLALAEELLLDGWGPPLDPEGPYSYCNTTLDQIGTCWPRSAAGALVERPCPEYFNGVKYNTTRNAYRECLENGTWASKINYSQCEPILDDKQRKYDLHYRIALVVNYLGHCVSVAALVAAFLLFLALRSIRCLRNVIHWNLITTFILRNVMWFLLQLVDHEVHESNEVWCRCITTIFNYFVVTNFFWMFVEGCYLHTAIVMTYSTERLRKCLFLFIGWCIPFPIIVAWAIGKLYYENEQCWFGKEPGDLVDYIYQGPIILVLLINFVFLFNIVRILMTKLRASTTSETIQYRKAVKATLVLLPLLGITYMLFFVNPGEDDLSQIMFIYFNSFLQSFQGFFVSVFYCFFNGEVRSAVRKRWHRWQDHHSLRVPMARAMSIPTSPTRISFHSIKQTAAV
T1 sequence (P24387 whole entry): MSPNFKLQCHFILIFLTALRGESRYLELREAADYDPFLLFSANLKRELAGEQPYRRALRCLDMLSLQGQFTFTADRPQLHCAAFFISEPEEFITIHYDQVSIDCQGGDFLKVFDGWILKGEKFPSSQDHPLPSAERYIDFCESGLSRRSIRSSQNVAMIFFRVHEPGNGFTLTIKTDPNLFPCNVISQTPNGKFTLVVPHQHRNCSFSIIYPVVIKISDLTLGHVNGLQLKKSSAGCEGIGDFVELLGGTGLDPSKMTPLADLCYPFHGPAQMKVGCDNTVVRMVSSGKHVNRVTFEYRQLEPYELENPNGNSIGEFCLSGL

A-375 = test: MITF: Counter assay: A375 proliferation Measured in Cell-Based System Using Plate Reader - 2084-03_Inhibitor_Dose_DryPowder_Activity. [Related pubchem assays (depositor defined):AID488944]; assay type: functional; settings: Homo sapiens
[2] = biological target: T2, Microphthalmia-associated transcription factor (Homo sapiens, UniProt O75030); test: TRPM1 promoter luciferase signal decrease, dose response, MITF inhibitor project, cell-based, SK-MEL-5, cherry-picked, set 3 (AID 493073); assay type: functional
T2 sequence (O75030 whole entry): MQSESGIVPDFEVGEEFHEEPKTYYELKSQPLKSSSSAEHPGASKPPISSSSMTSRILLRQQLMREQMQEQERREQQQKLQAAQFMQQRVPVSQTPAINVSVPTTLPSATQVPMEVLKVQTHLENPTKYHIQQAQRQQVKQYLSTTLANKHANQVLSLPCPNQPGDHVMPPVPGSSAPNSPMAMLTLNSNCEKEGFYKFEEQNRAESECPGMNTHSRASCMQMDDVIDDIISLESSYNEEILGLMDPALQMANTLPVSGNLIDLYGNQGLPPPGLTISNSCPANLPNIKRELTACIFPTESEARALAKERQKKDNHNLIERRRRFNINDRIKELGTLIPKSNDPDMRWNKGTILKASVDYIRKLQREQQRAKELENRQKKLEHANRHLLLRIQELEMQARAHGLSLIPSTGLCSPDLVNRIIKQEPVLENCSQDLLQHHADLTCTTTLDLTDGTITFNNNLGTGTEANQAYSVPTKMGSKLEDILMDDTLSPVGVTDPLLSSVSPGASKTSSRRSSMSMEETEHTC

[3] = biological target: T3, Tyrosine-protein phosphatase non-receptor type 22 (Homo sapiens, UniProt Q9Y2R2); assay type: functional
T3 sequence (Q9Y2R2 whole entry): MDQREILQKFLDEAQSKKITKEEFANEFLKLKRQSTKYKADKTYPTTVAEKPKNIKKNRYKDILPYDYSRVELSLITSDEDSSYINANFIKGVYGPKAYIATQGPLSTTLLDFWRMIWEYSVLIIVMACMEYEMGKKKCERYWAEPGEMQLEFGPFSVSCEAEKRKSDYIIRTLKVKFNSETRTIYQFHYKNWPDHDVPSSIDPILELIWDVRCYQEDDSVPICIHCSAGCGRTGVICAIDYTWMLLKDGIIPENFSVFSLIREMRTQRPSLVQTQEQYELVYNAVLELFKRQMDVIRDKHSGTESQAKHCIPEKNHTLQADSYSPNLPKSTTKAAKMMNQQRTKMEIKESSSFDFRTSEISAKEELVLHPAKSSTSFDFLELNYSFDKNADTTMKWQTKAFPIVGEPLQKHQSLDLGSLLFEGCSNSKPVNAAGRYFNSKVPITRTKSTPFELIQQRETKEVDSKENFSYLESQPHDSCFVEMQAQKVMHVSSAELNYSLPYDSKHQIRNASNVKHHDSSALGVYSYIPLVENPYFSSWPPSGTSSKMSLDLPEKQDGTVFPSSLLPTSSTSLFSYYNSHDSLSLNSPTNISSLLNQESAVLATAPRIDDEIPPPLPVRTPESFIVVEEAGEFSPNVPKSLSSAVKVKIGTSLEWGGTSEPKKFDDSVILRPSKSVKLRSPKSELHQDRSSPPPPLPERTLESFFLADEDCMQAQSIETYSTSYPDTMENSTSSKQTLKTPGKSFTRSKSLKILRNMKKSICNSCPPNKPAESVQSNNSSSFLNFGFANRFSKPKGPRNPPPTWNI

[4] = biological target: T4, Tyrosine-protein phosphatase non-receptor type 7 (Homo sapiens, UniProt P35236); assay type: functional
T4 sequence (P35236 whole entry): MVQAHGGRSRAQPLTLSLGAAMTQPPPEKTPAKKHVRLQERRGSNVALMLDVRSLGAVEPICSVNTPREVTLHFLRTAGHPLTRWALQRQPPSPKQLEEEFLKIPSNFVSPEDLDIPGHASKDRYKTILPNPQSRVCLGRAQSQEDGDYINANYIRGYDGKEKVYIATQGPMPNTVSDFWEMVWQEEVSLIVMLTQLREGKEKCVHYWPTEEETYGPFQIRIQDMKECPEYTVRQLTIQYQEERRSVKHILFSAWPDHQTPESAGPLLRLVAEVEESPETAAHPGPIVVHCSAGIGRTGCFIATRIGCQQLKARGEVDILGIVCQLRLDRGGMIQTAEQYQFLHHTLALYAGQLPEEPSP

[5] = biological target: T3, Tyrosine-protein phosphatase non-receptor type 22; assay type: functional; remark: listed apart in the source
[6] = biological target: Glucose-6-phosphate 1-dehydrogenase (Homo sapiens, UniProt P11413); test: human G6PD enzyme inhibitors, dose response, selectivity assay for P. falciparum G6PD inhibitor project, biochemical, fluorescence (AID 504792); assay type: functional
SUMO-activating enzyme [7] = biological target: T5, SUMO-activating enzyme (Homo sapiens, UniProt Q9UBT2); test: SUMOylation inhibitor hit validation, confirmation, SUMOylation inhibitor project, biochemical, AlphaScreen (AID 2018); assay type: functional
Genome polyprotein = Genome polyprotein (dengue virus type 2, UniProt P29990); test: Dengue-2 NS5 methyltransferase inhibitors, primary screen, biochemical, confirmation dose response (AID 588689); assay type: functional
[8] = biological target: T6, Replicative DNA helicase DnaB (Mycobacterium tuberculosis, UniProt P9WMR3); test: DnaB intein splicing inhibitors, dose response, biochemical, cell-free fluorescence (AID 449749); assay type: functional
T6 sequence (P9WMR3 whole entry): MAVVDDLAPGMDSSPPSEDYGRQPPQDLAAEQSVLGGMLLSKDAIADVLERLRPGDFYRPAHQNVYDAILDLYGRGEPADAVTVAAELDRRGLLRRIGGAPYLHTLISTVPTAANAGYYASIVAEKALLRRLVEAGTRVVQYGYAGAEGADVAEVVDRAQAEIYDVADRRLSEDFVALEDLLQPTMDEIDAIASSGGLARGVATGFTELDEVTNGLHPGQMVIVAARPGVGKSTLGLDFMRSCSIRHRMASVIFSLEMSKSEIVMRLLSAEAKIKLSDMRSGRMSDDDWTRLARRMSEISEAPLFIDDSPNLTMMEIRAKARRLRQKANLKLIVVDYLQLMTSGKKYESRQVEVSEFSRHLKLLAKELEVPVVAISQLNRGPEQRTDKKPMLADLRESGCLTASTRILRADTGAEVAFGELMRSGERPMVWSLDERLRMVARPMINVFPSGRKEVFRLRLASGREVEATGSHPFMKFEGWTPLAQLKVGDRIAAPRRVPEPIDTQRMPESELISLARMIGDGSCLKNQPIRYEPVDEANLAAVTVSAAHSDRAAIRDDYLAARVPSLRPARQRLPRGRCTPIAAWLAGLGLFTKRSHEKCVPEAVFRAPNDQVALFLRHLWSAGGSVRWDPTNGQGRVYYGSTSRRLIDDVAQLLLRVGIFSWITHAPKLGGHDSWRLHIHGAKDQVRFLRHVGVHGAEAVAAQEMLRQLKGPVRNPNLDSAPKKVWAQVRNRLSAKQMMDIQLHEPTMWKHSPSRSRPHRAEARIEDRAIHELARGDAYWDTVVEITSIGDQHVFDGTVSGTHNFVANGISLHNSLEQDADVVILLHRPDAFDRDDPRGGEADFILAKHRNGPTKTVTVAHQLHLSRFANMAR

SUMO-activating enzyme [9] = biological target: T5, SUMO-activating enzyme; test: inhibitors of in vitro SUMOylation cascade, primary screen, biochemical, HTRF, uHTS (AID 2006); assay type: protein-complex assay
Protein RecA = biological target: T7, Protein RecA (Mycobacterium tuberculosis, UniProt P9WHJ3); test: Fluorescence Cell-Free Homogeneous Dose Retest to Identify Inhibitors of RecA-Intein Splicing Activity. [Related pubchem assays (depositor defined):AID2097, AID2223, AID489010, AID492950]; assay type: functional
T7 sequence (P9WHJ3 whole entry): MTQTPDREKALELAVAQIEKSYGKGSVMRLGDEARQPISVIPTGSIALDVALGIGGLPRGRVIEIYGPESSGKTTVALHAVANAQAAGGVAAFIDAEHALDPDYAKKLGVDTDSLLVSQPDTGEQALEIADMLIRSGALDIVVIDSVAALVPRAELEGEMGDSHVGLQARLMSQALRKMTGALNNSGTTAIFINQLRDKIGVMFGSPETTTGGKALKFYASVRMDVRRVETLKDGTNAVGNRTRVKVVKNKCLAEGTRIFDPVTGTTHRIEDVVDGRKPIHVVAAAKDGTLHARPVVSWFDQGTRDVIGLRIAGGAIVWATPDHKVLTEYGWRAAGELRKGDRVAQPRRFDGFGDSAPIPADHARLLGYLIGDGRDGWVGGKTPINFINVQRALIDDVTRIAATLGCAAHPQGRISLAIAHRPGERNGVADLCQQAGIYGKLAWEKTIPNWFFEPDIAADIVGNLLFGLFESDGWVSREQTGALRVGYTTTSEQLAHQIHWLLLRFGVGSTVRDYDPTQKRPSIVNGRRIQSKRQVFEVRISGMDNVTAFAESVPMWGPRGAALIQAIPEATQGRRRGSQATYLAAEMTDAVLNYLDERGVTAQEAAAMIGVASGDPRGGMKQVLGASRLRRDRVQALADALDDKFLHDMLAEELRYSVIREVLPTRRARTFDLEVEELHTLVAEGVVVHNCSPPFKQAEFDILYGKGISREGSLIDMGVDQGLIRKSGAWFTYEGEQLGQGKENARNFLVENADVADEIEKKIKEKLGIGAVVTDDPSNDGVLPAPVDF

cells = assay type: functional
[10] = biological target: T8, Rac GTPase-activating protein 1 (Homo sapiens, UniProt Q9H0H5); test: MgcRacGAP GTPase-activating activity inhibitors, confirmation, biochemical, ADP Hunter fluorescence, primary and confirmatory (AID 624330); assay type: functional
T8 sequence (Q9H0H5 whole entry): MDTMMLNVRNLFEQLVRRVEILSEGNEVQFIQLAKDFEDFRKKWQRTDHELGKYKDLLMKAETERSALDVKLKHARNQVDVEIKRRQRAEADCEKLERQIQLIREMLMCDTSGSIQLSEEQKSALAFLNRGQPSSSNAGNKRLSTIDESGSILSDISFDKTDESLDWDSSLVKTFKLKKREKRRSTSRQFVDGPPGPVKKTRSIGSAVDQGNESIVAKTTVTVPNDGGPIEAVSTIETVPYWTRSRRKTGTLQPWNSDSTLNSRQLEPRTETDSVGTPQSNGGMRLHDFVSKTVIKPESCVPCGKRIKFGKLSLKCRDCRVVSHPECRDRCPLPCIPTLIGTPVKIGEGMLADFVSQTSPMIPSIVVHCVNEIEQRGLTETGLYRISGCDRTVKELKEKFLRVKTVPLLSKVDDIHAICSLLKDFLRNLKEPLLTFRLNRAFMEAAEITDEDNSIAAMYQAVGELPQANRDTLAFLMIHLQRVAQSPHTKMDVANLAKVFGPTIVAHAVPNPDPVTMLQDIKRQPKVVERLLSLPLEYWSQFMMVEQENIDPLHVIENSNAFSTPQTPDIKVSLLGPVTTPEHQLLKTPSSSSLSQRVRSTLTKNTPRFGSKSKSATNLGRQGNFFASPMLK

T5 sequence (Q9UBE0 whole entry): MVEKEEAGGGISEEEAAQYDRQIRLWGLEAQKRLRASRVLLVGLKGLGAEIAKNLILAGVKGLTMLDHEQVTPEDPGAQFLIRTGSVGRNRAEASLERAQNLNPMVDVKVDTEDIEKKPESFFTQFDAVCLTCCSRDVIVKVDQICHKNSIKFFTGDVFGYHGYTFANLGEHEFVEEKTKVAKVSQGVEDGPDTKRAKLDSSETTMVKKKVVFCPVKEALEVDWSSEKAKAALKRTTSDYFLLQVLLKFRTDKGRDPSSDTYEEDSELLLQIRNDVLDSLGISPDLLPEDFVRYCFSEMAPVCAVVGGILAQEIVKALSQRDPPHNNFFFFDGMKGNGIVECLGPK
T5 sequence (Q9UBT2 whole entry): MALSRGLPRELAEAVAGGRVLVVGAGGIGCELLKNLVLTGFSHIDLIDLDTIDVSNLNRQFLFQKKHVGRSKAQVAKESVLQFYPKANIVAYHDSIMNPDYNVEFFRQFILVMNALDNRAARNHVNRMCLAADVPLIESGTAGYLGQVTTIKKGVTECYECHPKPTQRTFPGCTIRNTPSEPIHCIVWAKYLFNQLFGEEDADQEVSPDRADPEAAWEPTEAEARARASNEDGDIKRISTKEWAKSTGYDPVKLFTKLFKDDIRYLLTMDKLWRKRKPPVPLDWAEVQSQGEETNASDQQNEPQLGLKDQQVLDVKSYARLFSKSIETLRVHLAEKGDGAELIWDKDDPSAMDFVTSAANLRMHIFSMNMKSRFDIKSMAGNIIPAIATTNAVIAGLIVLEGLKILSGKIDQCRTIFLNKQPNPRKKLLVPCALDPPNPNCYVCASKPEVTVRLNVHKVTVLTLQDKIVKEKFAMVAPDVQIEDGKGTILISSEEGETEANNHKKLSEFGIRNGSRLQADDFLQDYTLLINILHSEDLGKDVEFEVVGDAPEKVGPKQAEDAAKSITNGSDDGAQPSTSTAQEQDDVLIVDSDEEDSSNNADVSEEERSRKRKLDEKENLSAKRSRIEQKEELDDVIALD
Chain of Glucose-6-phosphate 1-dehydrogenase (P11413 whole entry): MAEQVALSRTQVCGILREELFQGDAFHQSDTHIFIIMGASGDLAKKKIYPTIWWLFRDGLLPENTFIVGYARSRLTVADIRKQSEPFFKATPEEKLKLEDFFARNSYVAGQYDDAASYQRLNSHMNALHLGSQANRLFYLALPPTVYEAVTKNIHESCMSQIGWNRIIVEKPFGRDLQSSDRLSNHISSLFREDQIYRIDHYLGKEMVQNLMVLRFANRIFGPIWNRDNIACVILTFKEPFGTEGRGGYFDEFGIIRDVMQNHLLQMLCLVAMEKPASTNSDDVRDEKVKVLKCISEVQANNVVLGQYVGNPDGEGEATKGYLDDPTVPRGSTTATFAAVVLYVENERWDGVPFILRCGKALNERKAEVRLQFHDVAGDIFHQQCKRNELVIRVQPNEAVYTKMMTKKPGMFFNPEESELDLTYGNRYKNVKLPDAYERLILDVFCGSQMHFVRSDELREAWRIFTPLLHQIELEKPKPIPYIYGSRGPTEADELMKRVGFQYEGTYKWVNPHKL
Chain of Genome polyprotein (P29990 2492-3391 limits assumed): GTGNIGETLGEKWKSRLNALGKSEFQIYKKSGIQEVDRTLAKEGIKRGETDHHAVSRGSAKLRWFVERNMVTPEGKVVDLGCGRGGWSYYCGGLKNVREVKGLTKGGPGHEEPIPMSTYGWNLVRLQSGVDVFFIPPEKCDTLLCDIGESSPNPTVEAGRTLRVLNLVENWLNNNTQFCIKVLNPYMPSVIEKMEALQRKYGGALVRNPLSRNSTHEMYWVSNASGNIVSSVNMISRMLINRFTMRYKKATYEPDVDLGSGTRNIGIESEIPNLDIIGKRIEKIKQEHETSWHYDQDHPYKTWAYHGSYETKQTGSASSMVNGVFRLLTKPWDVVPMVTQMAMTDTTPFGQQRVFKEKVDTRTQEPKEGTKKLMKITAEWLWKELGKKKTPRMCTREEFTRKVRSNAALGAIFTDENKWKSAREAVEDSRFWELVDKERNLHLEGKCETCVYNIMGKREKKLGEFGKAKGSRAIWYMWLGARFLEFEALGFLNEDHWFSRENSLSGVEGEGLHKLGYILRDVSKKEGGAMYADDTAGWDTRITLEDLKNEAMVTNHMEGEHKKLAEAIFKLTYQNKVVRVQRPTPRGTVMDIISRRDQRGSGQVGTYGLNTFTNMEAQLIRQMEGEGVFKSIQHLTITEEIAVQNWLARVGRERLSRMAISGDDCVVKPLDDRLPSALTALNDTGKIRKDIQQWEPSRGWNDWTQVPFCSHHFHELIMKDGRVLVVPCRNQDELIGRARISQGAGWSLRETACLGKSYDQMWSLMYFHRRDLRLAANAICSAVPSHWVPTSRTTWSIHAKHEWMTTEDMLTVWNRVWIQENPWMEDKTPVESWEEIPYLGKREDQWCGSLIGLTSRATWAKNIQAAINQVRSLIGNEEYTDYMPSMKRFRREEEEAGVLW

With `CCOC(=O)/C=c1/s/c(=C/c2ccc3cc(OC)ccc3c2)c(=O)n1CC(=O)NCC1CCCO1` (stereo unspecified) the EC50 [1] was 7.75 µM (active), the AC50 (A-375) was 29.7 µM (active) and the AC50 [2] was 6.79 µM (active).

For `CN(C)c1ccc(/C=C(\C#N)c2ccccn2)cc1`, the AC50 (A-375) was 45.2 µM (active) and the AC50 [2] was 6.32 µM (active).

For `CCOc1ccccc1NC(=O)CSc1nnc(Cc2cccn2C)n1-c1ccc(F)cc1`, the IC50 [3] was > 79.4 µM (inactive), the IC50 [4] was > 79.4 µM (inactive) and the IC50 [5] was > 79.4 µM (inactive).

In the case of `N#Cc1ccc(N=c2ssnc2Cl)cc1`, the IC50 [6] is reported as 48.3 µM (inactive).

In the case of `CC1=NN(c2ccc(C(=O)O)cc2)C(=O)/C1=C\c1ccc(OC(=O)c2cccs2)cc1`, the IC50 (SUMO-activating enzyme [7]) is reported as 7.86 µM (active), the IC50 (Genome polyprotein) is reported as 15.6 µM (active) and the AC50 [8] is reported as 2.08 µM (active). For the same compound, the IC50 (SUMO-activating enzyme [9]) was 57.7 µM (active), the EC50 (Protein RecA) was 1.9 µM (active) and the IC50 (cells) was 15.1 µM (active). For the same compound, the IC50 [10] was 185 µM (active).

Source: ChEMBL document CHEMBL1201862, “PubChem BioAssay data set” (2004)
